The results in this text go back to paper PMC2654408 (PLoS ONE, 2009).

Test [1] has as its target T1, α7-nAChR (Homo sapiens, UniProt P36544).
T1 construct: host or cells: GH4-hα7 (rat pituitary tumor GH4 cells stably transfected with human α7-nAChR)
Kind of test: biochemical. Type of test: binding. The conditions noted are these: for [125I]α-BTX binding compared with control maximum specific binding: Mean±SEM. On the procedure: (§1) For membrane binding experiments, confluent cells were scraped off 75 cm^2 culture plates into ice-cold lysis buffer (20 mM Tris-HCl, pH 7.0, 5 mM ethylenediaminetetraacetic acid (EDTA), and 1× protease inhibitor cocktail (Roche Diagnostics, Ltd.,West Sussex, UK). After pelleting by centrifugation for 10 min at 13,000 rpm, cells were resuspended in 7 ml ice-cold lysis buffer, lysed by Dounce homogenization, and then centrifuged at 1000×g for 10 min. Supernatant was removed and the extraction process repeated. The supernatants were combined and centrifuged at 50,000 rpm (70 Ti rotor) for 30 min (Beckman Ultracentrifuge). All centrifugations were carried out at 4°C. The pelleted membranes were resuspended in binding buffer (50 mM Tris-HCl, 120 mM NaCl, 5 mM KCl, 1 mM MgCl2, 2.5 mM CaCl2, pH 7.0) and protein concentration determined using the DC Protein Assay kit (Bio-Rad Laboratories, Ltd., Hemel Hempstead, UK). Binding assays were assembled on ice in borosilicate glass test tubes with 50–100 µg membrane protein in binding buffer in a final volume of 250 µl. Binding reactions were incubated at 4°C overnight, and then terminated by rapid vacuum filtration using a Brandel Cell Harvester onto Whatman GF/B glass fibre filters pre-soaked in 0.4% polyethylenimine. Saturation binding experiments were performed with [^125I]α-BTX concentrations ranging from 0.03–100 nM. Displacement binding experiments were performed with a constant [^125I]α-BTX concentration of 2.0 nM. Non-specific binding was determined with 10 µM MLA.
(§2) Ligand binding data were analyzed using GraphPad Prism 4.03 (GraphPad Software, Inc.) Saturation binding data were fitted by nonlinear regression with a hyperbolic function for a one-binding site model. Displacement binding data were fitted by nonlinear regression for a one-site binding competition model, unless otherwise noted. RT-PCR band density data was analysed using Student's t-test for comparison of individual means with control values and by one-way ANOVA followed by Tukey's multiple comparison test for comparison of test groups and effect of MLA inhibition effects.

Test [2] has as its target T1, α7-nAChR. Kind of test: Acute live cell [125I]α-BTX binding in GH4-hα7 cells. The conditions noted are these: for efficacy in competition with [125I]α-BTX for receptor binding sites: 10 µM peptide. On the procedure: Initial experiments were performed to characterize the binding parameters of the human α7-nAChR heterologously expressed in the rat GH4-hα7 cell line using a live-cell binding method. Saturation binding was carried out with [^125I]alpha-bungarotoxin ([^125I]α-BTX) concentrations ranging from 0.03 nM to 100 nM. Non-specific binding was determined in the presence of 10 µM methyllycaconitine (MLA).
For live cell binding experiments, cells were seeded into 6-well plates at a density of 1×10^5 cells/well and allowed to recover for 24–48 hours before experimentation. Cells were treated with indicated peptides or α7-nAChR ligands for 30 min at 37°C in cell medium containing 1% FBS. Then [^125I]α-bungarotoxin ([^125I]α-BTX; 150 Ci/mmol) was added and cells were incubated at 37°C for a further 1.5 hr. Cell layers were washed 3× with 2 ml serum-free DMEM, then 0.5 ml 1 M NaOH was added to each well to lyse cells. Cell lysates were transferred to 5 ml scintillation fluid and radioactivity was determined using a Beckman LS6000IC scintillation counter.
as §2

A further test deals with α7-nAChR mRNA expression. In words: RT-PCR analysis of α7-nAChR mRNA expression in GH4-hα7 cells. Type of test: cell-based, human. On the procedure:
To assess the effects of T-AChE C-terminal peptides on α7-nAChR mRNA expression, total cellular RNA was isolated and analysed for gene-specific expression levels using reverse transcriptase PCR. Specifics of primer design and sequences used in RT-PCR experiments are described in the methods. […] Expression of the housekeeping gene glyceraldehyde 3-phosphate dehydrogenase (GAPDH) was used as a standard for comparative analysis. RT-PCR analysis was performed in control GH4-hα7 cells and those exposed to AChE peptides at concentrations ranging from 1 nM to 1 µM for 24 hr (Fig. 5A). […] A similar high level of α7-nAChR expression was achieved after treatment with only 1 nM T30.
(§3) Ligand binding data were analyzed using GraphPad Prism 4.03 (GraphPad Software, Inc.) Saturation binding data were fitted by nonlinear regression with a hyperbolic function for a one-binding site model. […] RT-PCR band density data was analysed using Student's t-test for comparison of individual means with control values and by one-way ANOVA followed by Tukey's multiple comparison test for comparison of test groups and effect of MLA inhibition effects.
Primers for RNA analysis were designed using the Primer3 program and analysed for structural anomalies and dimer formation using NetPrimer software (Premier Biosoft International, Palo Alto, USA). […]

Test [3] deals with T1, α7-nAChR. In words: Saturation binding on cell membranes after chronic 24 hr peptide treatment of GH4-hα7 cells. The conditions noted are these: 24 hr treatment with 100 nM peptide; read-out: Kd±SEM, receptor affinity for α-BTX. It is filed as cell-based. The protocol: as §1, §3
Test [4] deals with human alpha-7 nicotinic acetylcholine receptor (human) (UniProt P36544).
The target is the same in test [5]. In words: radioligand binding.
The target of test [6] is T2, human alpha-7 nicotinic acetylcholine receptor (human, UniProt P36544 23-502).
T2 construct: human alpha-7 nicotinic acetylcholine receptor, heterologously expressed in the rat GH4-hα7 cell line; Used on live cells and as purified membranes of the same cell line; also called α7-nAChR; CHRNA7; source: on live cells and in purified cell membranes
Kind of test: radioligand binding. The settings on record: one partner purified.

For test [7], the target named is T2, human alpha-7 nicotinic acetylcholine …. Kind of test: radioligand binding. The settings on record: one partner purified. The source holds these as a separate data set.
[8] abbreviates: live cells, [125I]α-BTX displacement, read-out: Ki, high affinity site.

Where “and” joins values, the source holds several entries; their conditions need not be identical. Equal values may be shown once. Read-outs that look alike come from different tables or passages of the source. Where no end group is shown, it is not given here.

T1 sequence (P36544 23-502): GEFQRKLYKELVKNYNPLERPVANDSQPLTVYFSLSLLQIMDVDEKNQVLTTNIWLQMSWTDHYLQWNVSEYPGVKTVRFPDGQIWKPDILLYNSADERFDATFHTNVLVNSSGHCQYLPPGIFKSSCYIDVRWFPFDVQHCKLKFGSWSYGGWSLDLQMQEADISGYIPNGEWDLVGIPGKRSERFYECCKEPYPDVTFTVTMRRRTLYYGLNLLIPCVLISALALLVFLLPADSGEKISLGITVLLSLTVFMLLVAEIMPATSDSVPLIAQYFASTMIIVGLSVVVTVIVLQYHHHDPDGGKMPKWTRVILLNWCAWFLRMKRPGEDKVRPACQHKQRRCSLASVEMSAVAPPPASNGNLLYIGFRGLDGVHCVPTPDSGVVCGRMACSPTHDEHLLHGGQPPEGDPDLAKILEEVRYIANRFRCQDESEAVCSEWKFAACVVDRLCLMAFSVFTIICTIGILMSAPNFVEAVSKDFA
human alpha-7 nicotinic acetylcholine receptor (human), sequence (P36544 23-502): as above
T2 sequence (P36544 23-502): as above

For `CC(=O)OCC[N+](C)(C)C` [ACh, acetylcholine], the “decrease in specific binding efficacy in the presence of T30 compared with ligand alone” value (shortened to “decrease in specific binding efficacy”) on α7-nAChR [1] (membranes, ligand at its EC50, varying concentrations of T30) was 18%.
As for “[^125I]alpha-bungarotoxin [[^125I]α-BTX]”, at α7-nAChR [2], the Bmax was found to be 965.8±28.9 fmol/mg protein and binding was characterised by a dissociation constant (Kd) of 4.68 ± 0.61 nM.
`CCN1C[C@]2(COC(=O)c3ccccc3N3C(=O)C[C@H](C)C3=O)CC[C@H](OC)[C@@]34[C@@H]5C[C@H]6[C@H](OC)[C@@H]5[C@](O)(C[C@@H]6OC)[C@@](O)([C@@H](OC)[C@H]23)[C@@H]14` [MLA, methyllycaconitine]: the “decrease in specific binding efficacy” value on α7-nAChR [1] stood at 24%. The IC50 – broadly, the midpoint of a concentration-inhibition curve – against α7-nAChR [1] (IC50) is 15.5 nM and 9.5 nM. Besides, the “α7-nAChR mRNA expression, relative band density” value with α7-nAChR mRNA expression came to 1.58±0.12.
With NQFDHYSKQERCSDL [T15], the Kd – broadly, the concentration at which binding is half-saturated – at α7-nAChR [3] was 4.91 ± 0.53 nM.
In test [4], AChE C-terminal peptide T30 returned a α7-nAChR mRNA expression by RT-PCR (relative band density against GAPDH) in GH4-hα7 cells after 24 hr with 1 nM to 1 µM T30 (relative band density) of 2.98. In test [5], the Ki, high affinity site was determined as 0.0168 nM and the Ki, second, lower affinity site turned out to be 47.1 nM.
Regarding `C[N+](C)(C)CCO` [Choline, choline], the “decrease in specific binding efficacy” value on α7-nAChR [1] came out at 36%. Also, the IC50 on α7-nAChR [1] (IC50±SEM) is 123000 nM and 126000 nM and 225000 nM and 357000 nM and 737000 nM. The Ki – broadly, the equilibrium dissociation constant of an inhibitor or competing ligand from its target – on α7-nAChR [1] (Ki±SEM) was 85900 nM and 88900 nM and 157000 nM and 250000 nM and 515000 nM.
The molecule AChE C-terminal peptide T14 showed a α7-nAChR mRNA expression by RT-PCR (relative band density against GAPDH) in GH4-hα7 cells after 24 hr with 1 nM to 1 µM T14 (relative band density) in test [4] of 2.72.
With AEFHRWSSYMVHWK [T14], the “efficacy in competition with [125I]α-BTX for receptor binding sites” value at α7-nAChR [2] (live cells) was “approximately 40%”. The Ki at α7-nAChR [2] (setting [8]) was determined as 0.653 ± 0.0126 nM. The “[125I]α-BTX binding compared with control maximum specific binding” value at α7-nAChR [1] (membranes, 1 µM peptide) came to 90.11±3.5%; at α7-nAChR [1] (membranes, 10 µM peptide) it was 87.91±1.9%. Moreover, on α7-nAChR [3], the Kd is 9.06 ± 0.93 nM.
As for KAEFHRWSSYMVHWKNQFDHYSKQERCSDL [T30], the “efficacy in competition with [125I]α-BTX for receptor binding sites” value at α7-nAChR [2] (live cells) is 70%. Further, the Ki at α7-nAChR [2] (setting [8]) came to 0.0168 ± 0.0018 nM; at α7-nAChR [2] (live cells, two-site competition model, read-out: Ki, second lower affinity site) it was 47.1 ± 2.8 nM. Besides, the “[125I]α-BTX binding compared with control maximum specific binding” value is 110.9±3.6% on α7-nAChR [1] (membranes, 1 µM peptide) and 117.3±4.9% on α7-nAChR [1] (membranes, 10 µM peptide). The Kd at α7-nAChR [3] amounted to 12 ± 1.39 nM.

B1: T-AChE: full-length tailed isoform of acetylcholinesterase (protein)
chain: EGREDAELLVTVRGGRLRGIRLKTPGGPVSAFLGIPFAEPPMGPRRFLPPEPKQPWSGVVDATTFQSVCYQYVDTLYPGFEGTEMWNPNRELSEDCLYLNVWTPYPRPTSPTPVLVWIYGGGFYSGASSLDVYDGRFLVQAERTVLVSMNYRVGAFGFLALPGSREAPGNVGLLDQRLALQWVQENVAAFGGDPTSVTLFGESAGAASVGMHLLSPPSRGLFHRAVLQSGAPNGPWATVGMGEARRRATQLAHLVGCPPGGTGGNDTELVACLRTRPAQVLVNHEWHVLPQESVFRFSFVPVVDGDFLSDTPEALINAGDFHGLQVLVGVVKDEGSYFLVYGAPGFSKDNESLISRAEFLAGVRVGVPQVSDLAAEAVVLHYTDWLHPEDPARLREALSDVVGDHNVVCPVAQLAGRLAAQGARVYAYVFEHRASTLSWPLWMGVPHGYEIEFIFGIPLDPSRNYTAEEKIFAQRLMRYWANFARTGDPNEPRDPKAPQWPPYTAGAQQYVSLDLRPLEVRRGLRAQACAFWNRFLPKLLSATDTLDEAERQWKAEFHRWSSYMVHWKNQFDHYSKQDRCSDL
For the molecule B1, the “effect on [125I]α-BTX binding to the α7-nAChR” value in the test with α7-nAChR [2] (live cells, controls (Fig. 2D)) is listed as “neither full-length T-AChE, nor truncated T548, had an effect”. The “change in α7-nAChR mRNA expression” value in the test on α7-nAChR mRNA expression (10 nM protein, 24 hr) is on record as “neither the full length T-AChE molecule (p = 0.3419), nor the truncated T548 (p = 0.1778), effected a significant change”.

B2: [125I]alpha-bungarotoxin (ligand)
chain: IVCHTTATSPISAVTCPPGENLCYRKMWCDAFCSSRGKVVELGCAATCPSKKPYEEVTCCSTDKCNPHPKQRPG
As for B2, the Kd is 4.68 nM in test [6]; 4.66 nM and 9.06 nM and 12 nM and 4.91 nM in test [7].
